The values below come from patent US4921984A, “Novel platinum complexes” (Nippon Kayaku Kabushiki Kaisha, priority 1985, dated 1990).

Bounds are passed on as bounds.

Data set [1] concerns mouse leukemia L1210 cells. As to the kind of experiment: Growth inhibition test on cultured mouse leukemia L1210 cells. Conditions: RPMI 1640 with 10% fetal calf serum. The class given is cell-based. How it is done:
Mouse leukemia L1210 cells were cultured in a RPMI 1640 medium containing 10% of fetal calf serum.

Data set [2] has as its system mouse leukemia L1210. As to the kind of experiment: Antitumor activity test on mouse leukemia L1210 in vivo. Conditions: for max (T/C): L1210, average survival time treated/control ×100, i.p. once a day for 5 days; for Opt. dose: L1210, dose giving max (T/C); for Opt. dose / LD50: i.p. once a day for 5 days; for LD50: L1210-bearing CDF1 mice. How it is done: Mice of compound-non-treated group (control group) were administered with physiological saline solution in the same manner. The average survival times of the compound-treated group and the control group (abbreviated as T and C, respectively) were measured and T/C percentage (T/C×100) was calculated from the following equation. [formula]
In Table 4, max (T/C) means the maximum value of T/C and optimum dose (opt. dose) means an administration amount giving the max namely, an optimum administration amount.

For data set [3], the system named is mouse leukemia P388 cells. As to the kind of experiment: Antitumor activity test in vivo, mouse leukemia P388. Particulars: for Opt. dose: P388, i.p. once a day for 5 days; for Max (T/C): P388, median survival time, i.p. once a day for 5 days. As to the method:
(§1) 1×10^6 mouse leukemia P388 cells were inoculated into the abdominal cavities of 6-week-old female CDF1 mice, and from the next day a compound No. 15 was administered to them intraperitoneally once a day for 5 consecutive days. Separately, 1×10^6 mouse lung cancer Lewis lung carcinoma (LL) cells were inoculated into the abdominal cavities of male BDFl mice, and from the next day a compound No. 15 was administered to them intraperitoneally once a day for 5 consecutive days. Separately, 1×10^6 mouse fibrosarcoma M5076 cells were inoculated into the body sides of female C57BL/6 mice subcutaneously, and from the next day a compound No. 15 was administered to them intraperitoneally. Separately, 1×10^6 mouse colon cancer (colon 26) cells were inoculated into the abdominal cavities of female CDF1 mice, and from the next day a compound No. 15 was administered to them intraperitoneally. To respective control groups (compound-non-treated groups), physiological saline solution was administered.
(§2) From the survival times of the compound-treated group and the control group, respective median values (median survival times) were calculated. Using these values, T/C percentage was calculated from the following equation. [formula]

The test system of data set [4] is mouse lung cancer Lewis lung carcinoma (LL) cells. As to the kind of experiment: Antitumor activity test in vivo, Lewis lung carcinoma (LL). Conditions: i.p. once a day for 5 days; for Max (T/C): median survival time. As to the method: as §1, §2
Data set [5] in a line: Test for renal toxicity. Particulars: mouse, in vivo. As to the method:
A compound was administered one time to 6-week-old male CDFl mice intraperitoneally. After 4 days, their blood was collected for measurement of blood urea nitrogen concentration (BUN value).
In Table 6, body weight ratio is a ratio of body weight after 4 days from administration to body weight of administration day.

For data set [6], the system named is various tumor cells. As to the kind of experiment: Antitumor activity on various tumors (general statement). The class given is in vivo, mouse. Conditions: in words. As to the method: as §1, §2
Data set [7] relates to cis-Platin resistant mouse leukemia L1210 cells. As to the kind of experiment: Growth inhibition test on cis-Platin resistant L1210 tumor cells. The class given is cell-based. Particulars: ratio of IC50 on cis-Platin resistant to non-resistant L1210 cells. The text has this:
(§3) 1×10^5 mouse leukemia L1210 cells or 1×10^5 mouse leukemia P388 cells were inoculated into the abdominal cavities of CDF1 female mouse. […] After 5 days, their tumor cells were inoculated to the abdominal cavities of other CDF1 female mouse, and the same treatment was applied.

In data set [8] the test system is cis-Platin resistant mouse leukemia P388 cells. As to the kind of experiment: Growth inhibition test on cis-Platin resistant P388 tumor cells. Conditions: ratio of IC50 on cis-Platin resistant to non-resistant P388 cells. The class given is cell-based.
Source text: as §3

Data set [9] relates to mouse fibrosarcoma M5076 cells. As to the kind of experiment: Antitumor activity test in vivo, fibrosarcoma M5076. Conditions: M5076 inoculated s.c., i.p. administration. How it is done: as §1, §2
For data set [10], the system named is mouse colon cancer (colon 26) cells. As to the kind of experiment: Antitumor activity test in vivo, colon 26. How it is done:
as §1, §2

The conditions of data set [11]: rate, in words; prior art; cited from earlier work.

Broadly, the IC50 is the concentration at which inhibition is half-maximal. A higher IC50 goes with weaker potency in that assay. Broadly, the LD50 is the dose at which mortality reaches 50%. High values mean lower toxicity, low ones greater toxicity.

The molecule `C[C@H]1CC[NH2+][Pt-2]2([NH2+]C1)[O]C(=O)C1(CCC1)C(=O)[O]2` [15S, cis-cyclobutane-1,1-dicarboxylato-S-2-methyl-1,4-butanediamine platinum] registered a Solubility in water above 15000 µg/mL. This molecule also showed an IC50 in data set [1] of 1.08 µg/mL. For the same molecule, in [2], the “max (T/C)” value was 206%, the Opt. dose came to 32 mg/kg and the 50% lethal dose (LD50) is on record as 48.0 mg/kg. In data set [3], the Opt. dose worked out at 40 mg/kg and the “Max (T/C)” value is 253%. Moreover, in data set [4], the Opt. dose stood at 50 mg/kg and the “Max (T/C)” value was determined as 164%. Further, in data set [5], the renal toxicity entry is “very low renal toxicity”. Also, the antitumor effect entry in data set [6] is on record as “excellent antitumor activities on various tumor cells”.

`CC1CC[NH2+][Pt-2]2([NH2+]C1)[O]C(=O)C1(CCC1)C(=O)[O]2` (racemic) [Compound No. 15, cis-Cyclobutane-1,1-dicarboxylato-2-methyl-1,4-butanediamine platinum]: the Solubility in water is above 8000 µg/mL. In data set [1], this molecule showed a 50% inhibitory concentration (IC50) of 1.20 µg/mL. The “IC50 R/IC50, Tumor cell L1210” value in data set [7] was determined as 3.19. The “IC50 R/IC50, Tumor cell P388” value in data set [8] was determined as 3.26. Moreover, in [2], the “max (T/C)” value came out at 182%, the Opt. dose is recorded as 32 mg/kg and the median lethal dose (LD50) was 80.0 mg/kg. In data set [3], the Opt. dose came out at 32 mg/kg and the “Max (T/C)” value is given as 260%. In data set [4], the Opt. dose is 32 mg/kg and the “Max (T/C)” value is 222%. This molecule also yielded an Opt. dose in [9] of 16 mg/kg. In data set [9] (median survival time), the “Max (T/C)” value was found to be 152%. In data set [10] (Colon 26, i.p. administration), the Opt. dose is 32 mg/kg. Besides, in [10] (Colon 26, median survival time, i.p. administration), the “Max (T/C)” value was determined as 198%.

Regarding `CCC1CCC[NH2+][Pt-2]([Cl])([Cl])[NH2+]1` (racemic) [Compound No. 10, cis-Dichloro-1-ethyl-1,4-butanediamine platinum], the “Solubility in physiological saline solution” value is reported as above 2 mg/ml. In addition, the IC50 in data set [1] stood at 0.35 µg/mL. Besides, in [2], the “max (T/C)” value stood at 210%, the Opt. dose was found to be 4 mg/kg and the LD50 came out at 6.0 mg/kg.

Consider `[Cl][Pt-2]1([Cl])[NH2+]CCCC[NH2+]1` [Compound No. 1, cis-Dichloro-1,4-butanediamine platinum], for which the “Solubility in physiological saline solution” value is given as above 2 mg/ml. Besides, the IC50 in data set [1] came out at 0.33 µg/mL. In data set [2], the “max (T/C)” value worked out at 203%, the Opt. dose is given as 2 mg/kg and the 50% lethal dose (LD50) worked out at 4.8 mg/kg.

As to `CCC1C(=O)[O][Pt-2]2([NH2+]CCCC(C)[NH2+]2)[O]C1=O` (racemic) [Compound No. 9, cis-Ethylmalonato-1-methyl-1,4-butanediamine platinum], the Solubility in water is above 10000 µg/mL. Further, the half-inhibitory concentration (IC50) in data set [1] was found to be 2.40 µg/mL. In data set [2], the “max (T/C)” value is 222%, the Opt. dose turned out to be 64 mg/kg and the LD50 is given as 96.0 mg/kg.

`N.N.[Cl][Pt][Cl]` [cis-Platin, cis-dichlorodiammineplatinum, reference compound] displayed an Opt. dose in data set [2] of 4 mg/kg. Besides, the dissolution in water entry in data set [11] was “dissolving in water slowly”.

`C[C@@H](CN)CCN.O=C([O-])C1(C(=O)[O-])CCC1.[Pt+2]` (stereo in doubt) [15R, cis-cyclobutane-1,1-dicarboxylato-R-2-methyl-1,4-butanediamine platinum] yielded a Solubility in water above 15000 µg/mL. The molecule also returned a half-maximal inhibitory concentration (IC50) in data set [1] of 0.78 µg/mL. For the same molecule, in data set [2], the “max (T/C)” value amounted to 189%, the Opt. dose stood at 32 mg/kg and the 50% lethal dose (LD50) was 33.6 mg/kg. Also, in [3], the Opt. dose worked out at 20 mg/kg and the “Max (T/C)” value was 253%. Moreover, in data set [4], the Opt. dose came out at 30 mg/kg and the “Max (T/C)” value amounted to 166%. Besides, in data set [5], the renal toxicity entry was “very low renal toxicity”. For the same molecule, the antitumor effect entry in data set [6] was “excellent antitumor activities on various tumor cells”.

Molecule `CCC1C(=O)[O][Pt-2]2([NH2+]CCC(C)C[NH2+]2)[O]C1=O` (racemic) [Compound No. 18, cis-Ethylmalonato-2-methyl-1,4-butanediamine platinum] had a Solubility in water above 10000 µg/mL. For the same molecule, the IC50 in [1] was found to be 0.84 µg/mL. Besides, in data set [2], the “max (T/C)” value was determined as 264%, the Opt. dose stood at 16 mg/kg and the median lethal dose (LD50) is listed as 24.0 mg/kg.
